Measurements taken from publication PMC6174881 (Journal of medicinal chemistry, 2018).

Legend:
mMC1R [1] = target: T1, mMC1R (Mus musculus, UniProt Q01727); details: maximal stimulation relative to NDP-MSH; sigmoidal dose-response
mMC4R = mMC4R (Mus musculus, UniProt P56450); details: depending on the cAMP assay utilized; cited from earlier work
mMC1R [2] = target: T1, mMC1R; assay: cell-based

T1 sequence (Q01727 whole entry): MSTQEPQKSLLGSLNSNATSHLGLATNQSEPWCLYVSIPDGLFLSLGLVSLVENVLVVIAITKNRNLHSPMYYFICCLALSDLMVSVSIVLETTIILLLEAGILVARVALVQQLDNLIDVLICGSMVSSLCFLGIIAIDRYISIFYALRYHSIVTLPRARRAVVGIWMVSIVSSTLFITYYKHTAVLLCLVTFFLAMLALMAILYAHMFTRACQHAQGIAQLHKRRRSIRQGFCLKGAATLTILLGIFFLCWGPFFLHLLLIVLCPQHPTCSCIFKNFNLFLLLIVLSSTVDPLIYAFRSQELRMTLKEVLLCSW
mMC4R, sequence (P56450 whole entry): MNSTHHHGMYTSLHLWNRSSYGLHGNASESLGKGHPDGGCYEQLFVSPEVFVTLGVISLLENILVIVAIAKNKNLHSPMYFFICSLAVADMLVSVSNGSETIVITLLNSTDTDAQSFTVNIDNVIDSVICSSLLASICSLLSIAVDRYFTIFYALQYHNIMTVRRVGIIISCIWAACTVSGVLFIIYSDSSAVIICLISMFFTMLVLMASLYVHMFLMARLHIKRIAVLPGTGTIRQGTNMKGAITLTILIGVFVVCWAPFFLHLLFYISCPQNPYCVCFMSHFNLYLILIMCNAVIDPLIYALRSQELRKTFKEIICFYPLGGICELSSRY

Question: With `C[C@@H]1NC(=O)[C@H](CC(N)=O)NC(=O)[C@H](Cc2ccccc2)NC(=O)[C@H](Cc2ccccc2)NC(=O)[C@H](CCCNC(=N)N)NC(=O)[C@@H]2CCCN2C(=O)[C@H]2CCCN2C(=O)[C@H](Cc2ccccc2)NC1=O` [Compound 1, c[Pro-Arg-Phe-Phe-Asn-Ala-Phe-DPro]] as the compound, how does the “mMC1R partial agonist activity (X%), receptor stimulated to given percent” value (mMC1R [1]) read?
Answer: 80%

Question: And the “mMC4R pA2” value (mMC4R)?
Answer: 7.7–8.1

Question: What about the EC50 (mMC1R [2]) of the same compound?
Answer: 2.8 ± 0.6 µM
